This is an account of results in patent publication US10689377B2 (Mirati Therapeutics, Inc., priority 2017, dated 2020).

pIC50: −log10 of the molar value. Structures can show the parent of a compound that is named as a salt.

The target of this test is KRas G12C (Homo sapiens, UniProt P01116, G12C). Kind of test: Cellular inhibition of KRas G12C measured by Phospho-ERK in NCI-H358 cells. Format: cell-based. To be noted: pERK(Thr202/Tyr204) normalized with GAPDH, NCI-H358 cells, 3 hours; read-out: IC50. The procedure: Cells were plated in poly-D-Lysine coated 96-well plates at a concentration of 50,000 cells/well and allowed to attach for 8-12 hours. Diluted compounds were then added at a final concentration of 0.5% DMSO. After 3 hours, the medium was removed, 150 μL of 4% formaldehyde was added and the plates were incubated for 20 minutes. The plates were washed with PBS, and permeabilized using 150 μL of ice cold 100% methanol for 10 minutes. Non-specific antibody binding to the plates was blocked using 100 μL Licor Blocking Buffer (Li-Cor Biotechnology, Lincoln Nebr.) for 1 hour at room temperature. Positive control samples and samples lacking cells were parallel processed with test samples as standards.
Chain of KRas G12C (P01116 1-188 isoform P01116-2 G12C): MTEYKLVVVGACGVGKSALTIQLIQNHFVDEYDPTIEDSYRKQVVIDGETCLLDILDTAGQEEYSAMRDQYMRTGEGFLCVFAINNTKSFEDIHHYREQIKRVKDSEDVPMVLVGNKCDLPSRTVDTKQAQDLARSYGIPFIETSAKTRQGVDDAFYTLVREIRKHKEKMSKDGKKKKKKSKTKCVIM
The amount Phospho-ERK was determined using an antibody specific for the phosphorylated form of ERK and compared to the amount of GAPDH. […] The plates were incubated for 2 hours at room temperature. The plates were washed with PBS+0.05% Tween 20.
Secondary antibodies used to visualize primary antibodies were added as follows: Anti-rabbit-680 diluted 1:1000 and Anti-mouse-800 diluted 1:1000 in Licor Block+0.05% Tween 20 and incubated for 1 hour at room temperature. The plates were washed with PBS+0.05% Tween 20. A 100 μL aliquot of PBS was added to each well and the plates were read on a LICOR AERIUS plate reader.
The pERK(Thr202/Tyr204) signal was normalized with the GAPDH signal and percent of DMSO control values were calculated. IC50 values were generated using a 4 parameter fit of the dose response curve. Key: “A”≥0.0001-≤1 μM; “B”>1 μM and ND=not determined.
As to `C=CC(=O)N1CCN(c2ncnc3c2CCN(c2c(O)cccc2F)C3)CC1` [Example 4, 1-(4-(7-(2-fluoro-6-hydroxyphenyl)-5,6,7,8-tetrahydropyrido[3,4-d]pyrimidin-4-yl)piperazin-1-yl)prop-2-en-1-one], the pIC50 is < 6.00. The result for `C=CC(=O)N1CCN(c2nc(O[C@H](C)CN(C)C)nc3c2CCN(c2cccc4ccccc24)C3)CC1` [Example 68, (R)-1-(4-(2-((1-(dimethylamino)propan-2-yl)oxy)-7-(naphthalen-1-yl)-5,6,7,8-tetrahydropyrido[3,4-d]pyrimidin-4-yl)piperazin-1-yl)prop-2-en-1-one] reads < 6.00. The result for `C=CC(=O)N1CCN(c2nc(OCCN3CCS(=O)(=O)CC3)nc3c2CCN(c2cc(O)cc4ccccc24)C3)CC1` [Example 33, 1-(4-(2-(2-(1,1-dioxidothiomorpholino)ethoxy)-7-(3-hydroxynaphthalen-1-yl)-5,6,7,8-tetrahydropyrido[3,4-d]pyrimidin-4-yl)piperazin-1-yl)prop-2-en-1-one trifluoroacetate] reads < 6.00. Next, `Cc1cccc2cccc(N3CCc4c(nc(OC[C@@H]5CC(F)(F)CN5C)nc4N4CCN(C(=O)/C=C/CN5CC(F)C5)[C@@H](CC#N)C4)C3)c12` [Example 520, 2-[(2S)-4-[2-[[(2S)-4,4-difluoro-1-methyl-pyrrolidin-2-yl]methoxy]-7-(8-methyl-1-naphthyl)-6,8-dihydro-5H-pyrido[3,4-d]pyrimidin-4-yl]-1-[(E)-4-(3-fluoroazetidin-1-yl)but-2-enoyl]piperazin-2-yl]acetonitrile]: 6.00 to 10.00; `C=CC(=O)N1CCN(c2nc(OCCCN3CCOCC3)nc3c2CCN(c2cc(O)ccc2OC(F)(F)F)C3)CC1` [Example 90, 1-(4-(7-(5-hydroxy-2-(trifluoromethoxy)phenyl)-2-(3-morpholinopropoxy)-5,6,7,8-tetrahydropyrido[3,4-d]pyrimidin-4-yl)piperazin-1-yl)prop-2-en-1-one]: 6.00 to 10.00.

For `C=C(F)C(=O)N1CCN(c2nc(OC[C@@H]3CCCN3C)nc3c2CCN(c2c(C)c(C)cc4[nH]ncc24)C3)C[C@@H]1CC#N` [Example 604, 2-[(2S)-4-[7-(5,6-dimethyl-1H-indazol-4-yl)-2-[[(2S)-1-methylpyrrolidin-2-yl]methoxy]-6,8-dihydro-5H-pyrido[3,4-d]pyrimidin-4-yl]-1-(2-fluoroprop-2-enoyl)piperazin-2-yl]acetonitrile], the pIC50 is 6.00 to 10.00. For `C=CC(=O)N1CCN(c2nc(OC[C@@H]3CCCN3CC)nc3c2CCN(c2ccc(F)c4ccccc24)C3)CC1CC#N` (stereo partly drawn) [Example 322, 2-(1-acryloyl-4-(2-(((S)-1-ethylpyrrolidin-2-yl)methoxy)-7-(4-fluoronaphthalen-1-yl)-5,6,7,8-tetrahydropyrido[3,4-d]pyrimidin-4-yl)piperazin-2-yl)acetonitrile], the pIC50 is 6.00 to 10.00.

Regarding `C=CC(=O)N1CCN(c2nc(OC[C@@H]3CCN(C)C3)nc3c2CCN(c2cc(O)cc4ccccc24)C3)C[C@@H]1CC#N` [Example 350, 2-((S)-1-acryloyl-4-(7-(3-hydroxynaphthalen-1-yl)-2-(((R)-1-methylpyrrolidin-3-yl)methoxy)-5,6,7,8-tetrahydropyrido[3,4-d]pyrimidin-4-yl)piperazin-2-yl)acetonitrile], the pIC50 was 6.00 to 10.00.

On to `C=CC(=O)N1CCN(c2nc(OC[C@@H]3CCCN3C)nc3c2CCN(c2cccnc2C(F)(F)F)C3)CC1CC#N` (stereo partly drawn) [Example 226, 2-(1-acryloyl-4-(2-(((S)-1-methylpyrrolidin-2-yl)methoxy)-7-(2-(trifluoromethyl)pyridin-3-yl)-5,6,7,8-tetrahydropyrido[3,4-d]pyrimidin-4-yl)piperazin-2-yl)acetonitrile], for which the pIC50 is 6.00 to 10.00. The result for `C=CC(=O)N1CCN(c2nc(OC[C@@H]3CCCN3C)nc3c2CCN(c2cccc4cccc(Br)c24)C3)C[C@@H]1CC#N` [Example 464, 2-((S)-1-acryloyl-4-(7-(8-bromonaphthalen-1-yl)-2-(((S)-1-methylpyrrolidin-2-yl)methoxy)-5,6,7,8-tetrahydropyrido[3,4-d]pyrimidin-4-yl)piperazin-2-yl)acetonitrile] reads 6.00 to 10.00; that for `C=C(C(=O)N1CCN(c2nc(OC[C@@H]3CCCN3C)nc3c2CCN(c2cccc4cccc(C)c24)C3)C[C@@H]1CC#N)C(F)(F)F` [Example 492, 2-((S)-4-(7-(8-methylnaphthalen-1-yl)-2-(((S)-1-methylpyrrolidin-2-yl)methoxy)-5,6,7,8-tetrahydropyrido[3,4-d]pyrimidin-4-yl)-1-(2-(trifluoromethyl)acryloyl)piperazin-2-yl)acetonitrile], 6.00 to 10.00. The result for `C=CC(=O)N1CCN(c2nc(OC[C@H]3COCCN3C)nc3c2CCN(c2cccc4ccccc24)C3)CC1CC#N` (stereo partly drawn) [Example 273, 2-(1-acryloyl-4-(2-(((R)-4-methylmorpholin-3-yl)methoxy)-7-(naphthalen-1-yl)-5,6,7,8-tetrahydropyrido[3,4-d]pyrimidin-4-yl)piperazin-2-yl)acetonitrile] reads < 6.00; that for `C=CC(=O)N1CCN(c2nc(OC[C@@H]3CCCN3C)nc3c2CCN(c2cccc4ccccc24)C3)C(C)(C)C1` [Example 354, 1-[3,3-dimethyl-4-[2-[[(2S)-1-methylpyrrolidin-2-yl]methoxy]-7-(1-naphthyl)-6,8-dihydro-5H-pyrido[3,4-d]pyrimidin-4-yl]piperazin-1-yl]prop-2-en-1-one], < 6.00; that for `C=CC(=O)N1CCN(c2nc(OCC3CCN(Cc4ccccc4)C3)nc3c2CCN(c2cc(O)cc4ccccc24)C3)CC1` (stereo not shown) [Example 189, 1-(4-(2-((1-benzylpyrrolidin-3-yl)methoxy)-7-(3-hydroxynaphthalen-1-yl)-5,6,7,8-tetrahydropyrido[3,4-d]pyrimidin-4-yl)piperazin-1-yl)prop-2-en-1-one], < 6.00. Next, `C=C(F)C(=O)N1CCN(c2ncnc3c2CCN(c2cccc4ccccc24)C3)C[C@@H]1CC#N` [Example 610, (S)-2-(1-(2-fluoroacryloyl)-4-(7-(naphthalen-1-yl)-5,6,7,8-tetrahydropyrido[3,4-d]pyrimidin-4-yl)piperazin-2-yl)acetonitrile]: < 6.00; `C=CC(=O)N1CCN(c2nc(OCCN3CCCCC3)nc3c2CCN(c2cccc4cccc(Cl)c24)C3)C[C@@H]1CC#N` [Example 362, 2-[(2S)-4-[7-(8-chloro-1-naphthyl)-2-[2-(1-piperidyl)ethoxy]-6,8-dihydro-5H-pyrido[3,4-d]pyrimidin-4-yl]-1-prop-2-enoyl-piperazin-2-yl]acetonitrile]: 6.00 to 10.00; `CN1CCC[C@H]1COc1nc2c(c(N3CCN(C(=O)/C=C/CN4CCOCC4)[C@@H](CC#N)C3)n1)CCN(c1cccc(Cl)c1C(F)(F)F)C2` [Example 346, 2-[(2S)-4-[7-[3-chloro-2-(trifluoromethyl)phenyl]-2-[[(2S)-1-methylpyrrolidin-2-yl]methoxy]-6,8-dihydro-5H-pyrido[3,4-d]pyrimidin-4-yl]-1-[(E)-4-morpholinobut-2-enoyl]piperazin-2-yl]acetonitrile]: 6.00 to 10.00. Turning to `C=CC(=O)N1CCN(c2nc(OC[C@@H]3CCCN3C)nc3c2CCN(c2ccccc2F)C3)CC1CC#N` (stereo partly drawn) [Example 227, 2-(1-acryloyl-4-(7-(2-fluorophenyl)-2-(((S)-1-methylpyrrolidin-2-yl)methoxy)-5,6,7,8-tetrahydropyrido[3,4-d]pyrimidin-4-yl)piperazin-2-yl)acetonitrile], the negative logarithm of the IC50 (pIC50) is 6.00 to 10.00. The result for `C=CC(=O)N1CCN(c2nc(OC[C@@H]3CCCN3C)nc3c2CCN(c2cncc4ccccc24)C3)CC1CC#N` (stereo partly drawn) [Example 260, 2-[4-[7-(4-isoquinolyl)-2-[[(2S)-1-methylpyrrolidin-2-yl]methoxy]-6,8-dihydro-5H-pyrido[3,4-d]pyrimidin-4-yl]-1-prop-2-enoyl-piperazin-2-yl]acetonitrile] reads 6.00 to 10.00; that for `C=CC(=O)N1CCN(c2nc(OCc3ncc[nH]3)nc3c2CCN(c2cccc4ccccc24)C3)C[C@@H]1CC#N` [Example 351, 2-[(2S)-4-[2-(1H-imidazol-2-ylmethoxy)-7-(1-naphthyl)-6,8-dihydro-5H-pyrido[3,4-d]pyrimidin-4-yl]-1-prop-2-enoyl-piperazin-2-yl]acetonitrile], 6.00 to 10.00.

Turning to `C=CC(=O)N1CCN(c2nc(OC[C@@H]3CN(C)CCO3)nc3c2CCN(c2cccc4ccccc24)C3)CC1CC#N` (stereo partly drawn) [Example 444, 2-(1-acryloyl-4-(2-(((S)-4-methylmorpholin-2-yl)methoxy)-7-(naphthalen-1-yl)-5,6,7,8-tetrahydropyrido[3,4-d]pyrimidin-4-yl)piperazin-2-yl)acetonitrile], the pIC50 was 6.00 to 10.00. Next, `C=C(F)C(=O)N1CCN(c2nc(OC[C@@H]3CCCN3C)nc3c2CCN(c2cccc4cccc(Cl)c24)C3)[C@@H](C(F)F)C1` [Example 621, 1-[(3R)-4-[7-(8-chloro-1-naphthyl)-2-[[(2S)-1-methylpyrrolidin-2-yl]methoxy]-6,8-dihydro-5H-pyrido[3,4-d]pyrimidin-4-yl]-3-(difluoromethyl)piperazin-1-yl]-2-fluoro-prop-2-en-1-one]: < 6.00.
